Laboratory results as given in ChEMBL document CHEMBL3272337, “Synthesis of a fragment of human parathyroid hormore, hPTH-(44-68)” (J Med Chem, 1977).
The source made the active and inactive calls. No cut-off for these calls is given here. Peptide text beside a SMILES is read from it.

What was measured:
[1] = target: T1, Adenylate cyclase (Homo sapiens) (UniProt Q8NFM4+O60503+Q08828+P40145+O60266+O95622+O43306+Q08462+P51828); test: Agonist activity at adenylyl cyclase (unknown origin) at 1.35 x 10^-4 M; format: protein assay
Gallus gallus = test: Induction of PTH-like activity in iv dosed chick by hypercalcemic assay; format: functional, organism-based
[2] = target: T1, Adenylate cyclase (Homo sapiens); test: Inhibition of bPTH-stimulated adenylyl cyclase (unknown origin) activity at 500:1 compound to native hormone molar ratio; format: protein assay

Activity [1]: inactive
inhibition [2]: inactive
Structure (SMILES): CC(C)C[C@H](NC(=O)[C@H](CO)NC(=O)[C@H](CCCCN)NC(=O)[C@H](CCC(=O)O)NC(=O)[C@H](Cc1cnc[nH]1)NC(=O)[C@H](CO)NC(=O)[C@H](CCC(=O)O)NC(=O)[C@@H](NC(=O)[C@H](CC(C)C)NC(=O)[C@@H](NC(=O)[C@H](CC(N)=O)NC(=O)[C@H](CC(=O)O)NC(=O)[C@H](CCC(=O)O)NC(=O)[C@H](CCCCN)NC(=O)[C@H](CCCCN)NC(=O)[C@H](CCCNC(=N)N)NC(=O)[C@@H]1CCCN1C(=O)[C@H](CCCNC(=N)N)NC(=O)[C@H](CCC(N)=O)NC(=O)[C@H](CO)NC(=O)CNC(=O)[C@H](C)NC(=O)[C@H](CC(=O)O)NC(=O)[C@@H](N)CCCNC(=N)N)C(C)C)C(C)C)C(=O)NCC(=O)O (H-RDAGSQRPRKKEDNVLVESHEKSLG-OH)
Activity (Gallus gallus): inactive
